Measured values as given in ChEMBL document CHEMBL1909046, “DrugMatrix in vitro pharmacology data”.

How the values were obtained:
[1] = target: T1, Alpha-2C adrenergic receptor (Homo sapiens, UniProt P18825); test: DRUGMATRIX: Adrenergic Alpha-2C radioligand binding (ligand: [3H] MK-912); assay type: cell membranes, Sf9, Membrane
T1 sequence (P18825 whole entry): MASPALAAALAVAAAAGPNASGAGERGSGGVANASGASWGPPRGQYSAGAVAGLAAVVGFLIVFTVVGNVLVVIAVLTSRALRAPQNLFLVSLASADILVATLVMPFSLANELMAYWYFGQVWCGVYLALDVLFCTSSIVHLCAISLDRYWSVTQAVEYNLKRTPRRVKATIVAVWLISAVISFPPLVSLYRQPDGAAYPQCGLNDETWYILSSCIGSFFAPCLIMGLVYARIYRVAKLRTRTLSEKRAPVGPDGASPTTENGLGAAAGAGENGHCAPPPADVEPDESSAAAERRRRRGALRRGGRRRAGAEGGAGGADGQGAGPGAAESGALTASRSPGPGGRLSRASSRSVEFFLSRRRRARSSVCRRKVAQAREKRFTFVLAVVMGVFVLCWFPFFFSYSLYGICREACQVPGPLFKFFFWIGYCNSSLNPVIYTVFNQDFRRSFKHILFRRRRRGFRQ

[2] = DRUGMATRIX: Calcium Channel Type L, Benzothiazepine radioligand binding (ligand: [3H] Diltiazem); assay type: cell membranes, Rattus norvegicus, Wistar, Brain, Membrane; conditions: Not Active = under 50% inhibition at 10 µM
[3] = target: T2, Receptor-type tyrosine-protein phosphatase C (Homo sapiens, UniProt P08575); parameters: species or system Escherichia coli;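 note: inhibition of CD45 enzyme activity measured using DiFMUP as substrate; in other assays of this panel Not Active means under 50% inhibition at 10 µM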
T2 sequence (P08575 whole entry): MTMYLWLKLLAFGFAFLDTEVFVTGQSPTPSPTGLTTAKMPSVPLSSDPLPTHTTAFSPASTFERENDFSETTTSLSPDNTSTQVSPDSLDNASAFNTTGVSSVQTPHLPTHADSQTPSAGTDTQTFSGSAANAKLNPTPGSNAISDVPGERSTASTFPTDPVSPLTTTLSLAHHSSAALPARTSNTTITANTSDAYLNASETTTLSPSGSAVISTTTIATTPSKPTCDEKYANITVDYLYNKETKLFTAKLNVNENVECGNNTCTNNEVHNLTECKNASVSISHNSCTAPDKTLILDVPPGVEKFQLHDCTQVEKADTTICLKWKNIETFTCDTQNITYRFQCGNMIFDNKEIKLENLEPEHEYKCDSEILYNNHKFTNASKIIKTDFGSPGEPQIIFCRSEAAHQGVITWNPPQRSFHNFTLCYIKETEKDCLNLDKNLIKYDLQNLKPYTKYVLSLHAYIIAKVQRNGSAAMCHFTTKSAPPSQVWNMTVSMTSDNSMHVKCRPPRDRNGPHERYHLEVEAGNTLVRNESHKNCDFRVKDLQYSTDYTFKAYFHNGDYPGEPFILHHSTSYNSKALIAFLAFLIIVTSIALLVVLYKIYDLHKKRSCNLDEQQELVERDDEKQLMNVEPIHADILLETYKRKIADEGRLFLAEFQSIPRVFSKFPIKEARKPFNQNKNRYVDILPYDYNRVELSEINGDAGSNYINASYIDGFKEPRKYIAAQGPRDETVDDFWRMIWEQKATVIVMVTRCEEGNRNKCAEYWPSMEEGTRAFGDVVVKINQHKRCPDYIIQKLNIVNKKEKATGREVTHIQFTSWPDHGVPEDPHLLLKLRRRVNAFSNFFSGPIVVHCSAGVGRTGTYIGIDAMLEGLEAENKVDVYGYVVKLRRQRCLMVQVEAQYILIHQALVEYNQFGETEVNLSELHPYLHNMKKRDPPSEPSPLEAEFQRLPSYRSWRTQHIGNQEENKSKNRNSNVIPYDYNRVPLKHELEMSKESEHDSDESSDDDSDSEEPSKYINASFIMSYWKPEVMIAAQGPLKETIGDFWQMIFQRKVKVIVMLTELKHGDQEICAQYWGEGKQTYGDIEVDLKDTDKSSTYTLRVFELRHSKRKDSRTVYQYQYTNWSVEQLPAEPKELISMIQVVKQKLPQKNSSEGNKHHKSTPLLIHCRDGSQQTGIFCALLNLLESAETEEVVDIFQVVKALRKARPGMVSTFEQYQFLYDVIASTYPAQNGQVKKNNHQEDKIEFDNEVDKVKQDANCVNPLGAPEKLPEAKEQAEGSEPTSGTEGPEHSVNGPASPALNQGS

[4] = DRUGMATRIX: Phorbol Ester radioligand binding (ligand: [3H] PDBu); assay type: cell membranes, Mus musculus, ICR, Brain, Membrane; conditions: Not Active = under 50% inhibition at 10 µM
D(4) dopamine receptor = target: T3, D(4) dopamine receptor (Homo sapiens, UniProt P21917); test: DRUGMATRIX: Dopamine D4.2 radioligand binding (ligand: [3H] Spiperone); assay type: cell membranes, CHO-K1, Membrane; conditions: cho-k1; Not Active = under 50% inhibition at 10 µM
T3 sequence (P21917 whole entry): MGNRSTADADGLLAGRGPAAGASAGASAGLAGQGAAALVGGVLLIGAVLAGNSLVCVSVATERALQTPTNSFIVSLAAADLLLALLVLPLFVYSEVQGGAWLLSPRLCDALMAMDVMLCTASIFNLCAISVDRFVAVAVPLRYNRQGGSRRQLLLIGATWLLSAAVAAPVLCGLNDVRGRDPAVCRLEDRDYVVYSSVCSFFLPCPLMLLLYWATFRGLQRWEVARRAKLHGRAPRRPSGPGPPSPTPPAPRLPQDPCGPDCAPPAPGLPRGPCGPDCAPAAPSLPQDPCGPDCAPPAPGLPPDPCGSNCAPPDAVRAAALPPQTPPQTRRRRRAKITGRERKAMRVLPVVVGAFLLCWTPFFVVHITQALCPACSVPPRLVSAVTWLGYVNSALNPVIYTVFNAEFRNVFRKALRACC

SMILES | IC50 ([1]; sf9) | IC50 [2] | Ki [2] | IC50 [3] | IC50 [4] | Ki [4] | IC50 (D(4) dopamine receptor) | IC50 ([2]; read-out: IC50) [µM] | Ki ([2]; read-out: Ki) [µM] | Ki [3] | IC50 ([1]; read-out: IC50) [µM] | Ki ([1]; read-out: Ki) [µM]
Cc1cc(O)cc(C)c1Cl [CHLOROXYLENOL] | Not Active | Not Active | Not Active | Not Active | Not Active | Not Active | Not Active | – | – | – | – | –
CCCNC(=O)NS(=O)(=O)c1ccc(Cl)cc1 [CHLORPROPAMIDE] | Not Active | Not Active | Not Active | Not Active | Not Active | Not Active | Not Active | – | – | – | – | –
NS(=O)(=O)c1cc(C2(O)NC(=O)c3ccccc32)ccc1Cl (stereo not given) [CHLORTHALIDONE] | Not Active | Not Active | Not Active | Not Active | Not Active | Not Active | Not Active | – | – | – | – | –
O=C(O)CC(O)(CC(=O)O)C(=O)O [CITRIC ACID] | Not Active | Not Active | Not Active | Not Active | Not Active | Not Active | Not Active | – | – | – | – | –
CC(C)NCC(O)c1ccccc1Cl (stereo not given) [CLORPRENALINE] | Not Active | Not Active | Not Active | Not Active | Not Active | Not Active | Not Active | – | – | – | – | –
CN1CCN(C(c2ccccc2)c2ccccc2)CC1 [CYCLIZINE] | Not Active | – | – | Not Active | Not Active | Not Active | Not Active | 2.52 | 2.24 | – | – | –
CN1C[C@@H]2C[C@H]1CN2c1cc2c(cc1F)c(=O)c(C(=O)O)cn2C1CC1 [DANOFLOXACIN] | Not Active | Not Active | Not Active | Not Active | Not Active | Not Active | Not Active | – | – | – | – | –
COc1cccc2c1C(=O)c1c(O)c3c(c(O)c1C2=O)C[C@@](O)(C(C)=O)C[C@@H]3O[C@H]1C[C@H](N)[C@H](O)[C@H](C)O1 [DAUNORUBICIN] | Not Active | Not Active | Not Active | Not Active | Not Active | Not Active | Not Active | – | – | – | – | –
O=C(O)c1cc(-c2ccc(F)cc2F)ccc1O [DIFLUNISAL] | Not Active | Not Active | Not Active | Not Active | Not Active | Not Active | Not Active | – | – | – | – | –
C[S+](C)[O-] [DIMETHYL SULFOXIDE] | Not Active | Not Active | Not Active | – | Not Active | Not Active | Not Active | – | – | Not Active | – | –
CC1=NN(c2ccccc2)C(=O)C1 [EDARAVONE] | Not Active | Not Active | Not Active | Not Active | Not Active | Not Active | Not Active | – | – | – | – | –
CC(C)C[C@H]1C(=O)N2CCC[C@H]2[C@]2(O)O[C@](NC(=O)[C@@H]3C=C4c5cccc6[nH]cc(c56)C[C@H]4N(C)C3)(C(C)C)C(=O)N12 [ERGOCRYPTINE] | – | Not Active | Not Active | Not Active | Not Active | Not Active | Not Active | – | – | – | 0.038 | 0.00548
